ChEMBL document CHEMBL4813934, “Investigation of Selected Flavonoid Derivatives as Potent FLT3 Inhibitors for the Potential Treatment of Acute Myeloid Leukemia” (J Nat Prod, 2021)
Activity calls are given as the source filed them. The rule behind the calls is not given here.

How the values were obtained:
[1] = target: T1, Receptor-type tyrosine-protein kinase FLT3 (Homo sapiens, UniProt P36888); test: Inhibition of recombinant His-tagged human FLT3 (564 to 958 residues) expressed in baculovirus expression system using tyr 02 as substrate incubated for 1 hr by Z'-LYTE assay
T1 sequence (P36888 whole entry): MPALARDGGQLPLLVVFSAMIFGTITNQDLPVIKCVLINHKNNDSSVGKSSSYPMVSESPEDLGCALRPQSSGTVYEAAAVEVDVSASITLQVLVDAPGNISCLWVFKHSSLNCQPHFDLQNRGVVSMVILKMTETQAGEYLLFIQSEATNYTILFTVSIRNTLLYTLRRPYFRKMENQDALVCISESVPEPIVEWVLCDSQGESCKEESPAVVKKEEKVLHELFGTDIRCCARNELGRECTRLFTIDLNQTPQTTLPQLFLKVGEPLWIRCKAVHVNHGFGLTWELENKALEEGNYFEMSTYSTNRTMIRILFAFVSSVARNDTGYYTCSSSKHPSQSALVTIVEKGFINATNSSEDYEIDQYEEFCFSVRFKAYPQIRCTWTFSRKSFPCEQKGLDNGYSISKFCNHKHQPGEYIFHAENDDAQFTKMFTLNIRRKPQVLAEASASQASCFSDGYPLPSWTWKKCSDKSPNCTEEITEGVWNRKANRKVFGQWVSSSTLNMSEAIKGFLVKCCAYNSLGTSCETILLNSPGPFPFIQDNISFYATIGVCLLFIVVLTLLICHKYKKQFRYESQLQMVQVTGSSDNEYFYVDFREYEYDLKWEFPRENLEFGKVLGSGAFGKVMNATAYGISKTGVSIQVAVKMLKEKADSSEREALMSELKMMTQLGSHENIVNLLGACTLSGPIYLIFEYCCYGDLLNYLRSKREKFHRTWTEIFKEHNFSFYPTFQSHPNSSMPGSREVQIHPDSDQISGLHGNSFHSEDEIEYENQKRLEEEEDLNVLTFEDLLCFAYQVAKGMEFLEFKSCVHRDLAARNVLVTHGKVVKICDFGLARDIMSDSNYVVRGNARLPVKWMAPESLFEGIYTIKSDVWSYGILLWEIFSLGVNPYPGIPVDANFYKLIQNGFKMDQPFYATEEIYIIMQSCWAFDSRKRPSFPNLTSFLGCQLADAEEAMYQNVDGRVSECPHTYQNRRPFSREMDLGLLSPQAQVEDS

[2] = target: Receptor-type tyrosine-protein kinase FLT3 (Homo sapiens) (UniProt P36888); test: Inhibition of recombinant His-tagged human FLT3 (564 to 958 residues) expressed in baculovirus expression system at 10 uM using tyr 02 as substrate incubated for 1 hr by Z'-LYTE assay relative to control
[3] = target: Receptor-type tyrosine-protein kinase FLT3 (Homo sapiens, UniProt P36888, ITD); test: Inhibition of recombinant N-terminal GST/His6-tagged human FLT3 ITD mutant (571 to 993 residues) expressed in Sf9 insect cells incubated for 1 hr by LanthaScreen assay
[4] = target: Receptor-type tyrosine-protein kinase FLT3 (Homo sapiens, UniProt P36888, D835Y); test: Inhibition of recombinant His-tagged human FLT3 D835Y mutant (564 to 958 residues) expressed in baculovirus expression system using tyr 02 as substrate incubated for 1 hr by Z'-LYTE assay
[5] = test system: MOLM-13; test: Cytotoxicity against human MOLM-13 cells assessed as reduction in cell viability measured after 72 hrs by MTT assay; format: functional, cell-based; details: MOLM-13, 72 h
[6] = test system: MV4-11; test: Cytotoxicity against human MV4-11 cells assessed as reduction in cell viability measured after 72 hrs by MTT assay; format: functional, cell-based; details: MV4-11, 72 h
[7] = test system: MOLM-13; test: Cell cycle arrest in human MOLM-13 cells assessed as accumulation at sub-G1 phase at 0.3 uM measured after 72 hrs by propidium iodide/RNaseA staining based flow cytometry analysis (reference value: 13.76 %); format: functional
[8] = test system: MOLM-13; test: Cell cycle arrest in human MOLM-13 cells assessed as accumulation at G0/G1 phase at 0.3 uM measured after 72 hrs by propidium iodide/RNaseA staining based flow cytometry analysis (reference value: 53.92 %); format: functional
[9] = test system: MOLM-13; test: Cell cycle arrest in human MOLM-13 cells assessed as accumulation at S phase at 0.3 uM measured after 72 hrs by propidium iodide/RNaseA staining based flow cytometry analysis (reference value: 11.14 %); format: functional
[10] = test system: MOLM-13; test: Cell cycle arrest in human MOLM-13 cells assessed as accumulation at G2/M phase at 0.3 uM measured after 72 hrs by propidium iodide/RNaseA staining based flow cytometry analysis (reference value: 20.36 %); format: functional
[11] = test system: MOLM-13; test: Cell cycle arrest in human MOLM-13 cells assessed as accumulation at sub-G1 phase at 3 uM measured after 72 hrs by propidium iodide/RNaseA staining based flow cytometry analysis (reference value: 13.76 %); format: functional
[12] = test system: MOLM-13; test: Cell cycle arrest in human MOLM-13 cells assessed as accumulation at G0/G1 phase at 3 uM measured after 72 hrs by propidium iodide/RNaseA staining based flow cytometry analysis (reference value: 53.92 %); format: functional
[13] = test system: MOLM-13; test: Cell cycle arrest in human MOLM-13 cells assessed as accumulation at S phase at 3 uM measured after 72 hrs by propidium iodide/RNaseA staining based flow cytometry analysis (reference value: 11.14 %); format: functional
[14] = test system: MOLM-13; test: Cell cycle arrest in human MOLM-13 cells assessed as accumulation at G2/M phase at 3 uM measured after 72 hrs by propidium iodide/RNaseA staining based flow cytometry analysis (reference value: 20.36 %); format: functional
[15] = test system: MOLM-13; test: Cell cycle arrest in human MOLM-13 cells assessed as accumulation at sub-G1 phase at 10 uM measured after 72 hrs by propidium iodide/RNaseA staining based flow cytometry analysis (reference value: 13.76 %); format: functional
[16] = test system: MOLM-13; test: Cell cycle arrest in human MOLM-13 cells assessed as accumulation at G0/G1 phase at 10 uM measured after 72 hrs by propidium iodide/RNaseA staining based flow cytometry analysis (reference value: 53.92 %); format: functional
[17] = test system: MOLM-13; test: Cell cycle arrest in human MOLM-13 cells assessed as accumulation at S phase at 10 uM measured after 72 hrs by propidium iodide/RNaseA staining based flow cytometry analysis (reference value: 11.14 %); format: functional
[18] = test system: MOLM-13; test: Cell cycle arrest in human MOLM-13 cells assessed as accumulation at G2/M phase at 10 uM measured after 72 hrs by propidium iodide/RNaseA staining based flow cytometry analysis (reference value: 20.36 %); format: functional
[19] = test system: MOLM-13; test: Cell cycle arrest in human MOLM-13 cells assessed as accumulation at sub-G1 phase at 30 uM measured after 72 hrs by propidium iodide/RNaseA staining based flow cytometry analysis (reference value: 13.76 %); format: functional
[20] = test system: MOLM-13; test: Cell cycle arrest in human MOLM-13 cells assessed as accumulation at G0/G1 phase at 30 uM measured after 72 hrs by propidium iodide/RNaseA staining based flow cytometry analysis (reference value: 53.92 %); format: functional
[21] = test system: MOLM-13; test: Cell cycle arrest in human MOLM-13 cells assessed as accumulation at S phase at 30 uM measured after 72 hrs by propidium iodide/RNaseA staining based flow cytometry analysis (reference value: 11.14 %); format: functional
[22] = test system: MOLM-13; test: Cell cycle arrest in human MOLM-13 cells assessed as accumulation at G2/M phase at 30 uM measured after 72 hrs by propidium iodide/RNaseA staining based flow cytometry analysis (reference value: 20.36 %); format: functional
[23] = test system: MV4-11; test: Cell cycle arrest in human MV4-11 cells assessed as accumulation at sub-G1 phase at 0.3 uM measured after 72 hrs by propidium iodide/RNaseA staining based flow cytometry analysis (reference value: 7.43 %); format: functional
[24] = test system: MV4-11; test: Cell cycle arrest in human MV4-11 cells assessed as accumulation at G0/G1 phase at 0.3 uM measured after 72 hrs by propidium iodide/RNaseA staining based flow cytometry analysis (reference value: 50.06 %); format: functional
[25] = test system: MV4-11; test: Cell cycle arrest in human MV4-11 cells assessed as accumulation at S phase at 0.3 uM measured after 72 hrs by propidium iodide/RNaseA staining based flow cytometry analysis (reference value: 17.51 %); format: functional
[26] = test system: MV4-11; test: Cell cycle arrest in human MV4-11 cells assessed as accumulation at G2/M phase at 0.3 uM measured after 72 hrs by propidium iodide/RNaseA staining based flow cytometry analysis (reference value: 26.26 %); format: functional
[27] = test system: MV4-11; test: Cell cycle arrest in human MV4-11 cells assessed as accumulation at sub-G1 phase at 3 uM measured after 72 hrs by propidium iodide/RNaseA staining based flow cytometry analysis (reference value: 7.43 %); format: functional
[28] = test system: MV4-11; test: Cell cycle arrest in human MV4-11 cells assessed as accumulation at G0/G1 phase at 3 uM measured after 72 hrs by propidium iodide/RNaseA staining based flow cytometry analysis (reference value: 50.06 %); format: functional
[29] = test system: MV4-11; test: Cell cycle arrest in human MV4-11 cells assessed as accumulation at S phase at 3 uM measured after 72 hrs by propidium iodide/RNaseA staining based flow cytometry analysis (reference value: 17.51 %); format: functional
[30] = test system: MV4-11; test: Cell cycle arrest in human MV4-11 cells assessed as accumulation at G2/M phase at 3 uM measured after 72 hrs by propidium iodide/RNaseA staining based flow cytometry analysis (reference value: 26.26 %); format: functional
[31] = test system: MV4-11; test: Cell cycle arrest in human MV4-11 cells assessed as accumulation at sub-G1 phase at 10 uM measured after 72 hrs by propidium iodide/RNaseA staining based flow cytometry analysis (reference value: 7.43 %); format: functional
[32] = test system: MV4-11; test: Cell cycle arrest in human MV4-11 cells assessed as accumulation at G0/G1 phase at 10 uM measured after 72 hrs by propidium iodide/RNaseA staining based flow cytometry analysis (reference value: 50.06 %); format: functional
[33] = test system: MV4-11; test: Cell cycle arrest in human MV4-11 cells assessed as accumulation at S phase at 10 uM measured after 72 hrs by propidium iodide/RNaseA staining based flow cytometry analysis (reference value: 17.51 %); format: functional
[34] = test system: MV4-11; test: Cell cycle arrest in human MV4-11 cells assessed as accumulation at G2/M phase at 10 uM measured after 72 hrs by propidium iodide/RNaseA staining based flow cytometry analysis (reference value: 26.26 %); format: functional
[35] = test system: MV4-11; test: Cell cycle arrest in human MV4-11 cells assessed as accumulation at sub-G1 phase at 30 uM measured after 72 hrs by propidium iodide/RNaseA staining based flow cytometry analysis (reference value: 7.43 %); format: functional
[36] = test system: MV4-11; test: Cell cycle arrest in human MV4-11 cells assessed as accumulation at G0/G1 phase at 30 uM measured after 72 hrs by propidium iodide/RNaseA staining based flow cytometry analysis (reference value: 50.06 %); format: functional
[37] = test system: MV4-11; test: Cell cycle arrest in human MV4-11 cells assessed as accumulation at S phase at 30 uM measured after 72 hrs by propidium iodide/RNaseA staining based flow cytometry analysis (reference value: 17.51 %); format: functional
[38] = test system: MV4-11; test: Cell cycle arrest in human MV4-11 cells assessed as accumulation at G2/M phase at 30 uM measured after 72 hrs by propidium iodide/RNaseA staining based flow cytometry analysis (reference value: 26.26 %); format: functional
[39] = test system: MOLM-13; test: Cell cycle arrest in human MOLM-13 cells assessed as accumulation at G0/G1 phase at 0.3 to 3 uM measured after 72 hrs by propidium iodide/RNaseA staining based flow cytometry analysis; format: functional; details: dose 0.3-3 µM
[40] = test system: MV4-11; test: Cell cycle arrest in human MV4-11 cells assessed as increase in accumulation at sub-G1 phase at 30 uM measured after 72 hrs by propidium iodide/RNaseA staining based flow cytometry analysis; format: functional

Structure (SMILES): COc1ccc(-c2cc(=O)c3c(O)c(OC)c(OC)cc3o2)cc1 [SALVIGENIN]
- IC50 [1]: 0.55 µM
- inhibition [2]: > 80%
- IC50 [3]: 0.58 µM
- IC50 [4]: 0.29 µM
- IC50 [5]: 2.6 µM
- IC50 [6]: 2.6 µM
- Activity [7]: 9.93%
- Activity [8]: 59.22%
- Activity [9]: 10.48%
- Activity [10]: 20.25%
- Activity [11]: 19.21%
- Activity [12]: 59.78%
- Activity [13]: 5.26%
- Activity [14]: 15.19%
- Activity [15]: 40.89%
- Activity [16]: 42.74%
- Activity [17]: 5.4%
- Activity [18]: 11.15%
- Activity [19]: 43.19%
- Activity [20]: 40.99%
- Activity [21]: 4.05%
- Activity [22]: 11.69%
- Activity [23]: 6.78%
- Activity [24]: 50.11%
- Activity [25]: 20.59%
- Activity [26]: 25.07%
- Activity [27]: 6.83%
- Activity [28]: 70.55%
- Activity [29]: 8.74%
- Activity [30]: 14.37%
- Activity [31]: 14.62%
- Activity [32]: 69.17%
- Activity [33]: 6.62%
- Activity [34]: 10.19%
- Activity [35]: 9.4%
- Activity [36]: 73.88%
- Activity [37]: 5.91%
- Activity [38]: 11.25%
- Activity [39]: Active
- Activity [40]: Active

Structure (SMILES): COc1cc(O)c2c(=O)cc(-c3ccc(O)cc3)oc2c1 [GENKWANIN]
- IC50 [1]: 1.7 µM
- inhibition [2]: > 80%

Structure (SMILES): COc1ccc(-c2cc(=O)c3c(O)c(OC)c(O)cc3o2)cc1 [PECTOLINARIGENIN]
- IC50 [1]: 0.65 µM
- inhibition [2]: > 80%
- IC50 [3]: 0.88 µM
- IC50 [4]: 0.58 µM
- IC50 [5]: 5.9 µM
- IC50 [6]: 7.9 µM
